{"source": "patent US7118895B2", "about": "“Process for producing aglycon by using diglycosidase and flavor-improved food containing the aglycon and converting agent to be used in the process” (Amano Enzyme Inc., priority 2000, dated 2006)", "test_system": "Crude diglycosidase", "assay": "Examination of pH in the conversion into isoflavone aglycons by diglycosidase using soybean materials", "type": "biochemical, Penicillium multicolor IAM7153", "settings": "for Decomposition efficiency of glycitin family in roasted soy flour / Decomposition efficiency of glycitin family in soymilk / existing ratio of aglycon of each isoflavone family: 55° C.", "protocol": "A substrate solution of 450 μL was prepared by suspending 50 mg of each soybean material (roasted soy flour (manufactured by Fuji Shokuryo K.K.), soymilk (manufactured by Gitoh Shokuhin K.K.), defatted soybean (manufactured by Fuji Seiyu K.K.), concentrated soybean protein (manufactured by Fuji Seiyu K.K.)), and adjusting the pH to 2 to 11 with hydrochloric acid or sodium hydroxide. Each enzyme solution of pH 2–11 wherein diglycosidase activity of crude diglycosidase was adjusted to 1.88 AU/mL was added thereto in an amount of 50 μL and the whole was reacted at 55° C. at the total volume of 500 μL. To the reaction mixture was added 700 μL of ethanol after 0, 1, 3, and 6 hours of the reaction. After stirring and ultrasonication, the mixture was subjected to centrifugal separation at 15,000 rpm and 4° C. for 10 minutes. The supernatant was filtered through a filter and the existence of isoflavone glycosides and aglycon isoflavones contained in the reaction mixture was detected by HLPC (Tables 15 to 26).", "key": {"[1]": {"settings": "pH6.6, heat treatment of enzyme: no, reaction time 0 h"}, "[2]": {"settings": "pH6.6, heat treatment of enzyme: no, reaction time 1 h"}, "[3]": {"settings": "pH6.6, heat treatment of enzyme: no, reaction time 3 h"}, "[4]": {"settings": "pH6.6, heat treatment of enzyme: no, reaction time 6 h"}, "[5]": {"settings": "pH6.6, heat treatment of enzyme: yes, reaction time 6 h"}}}
{"smiles": "COc1cc2c(=O)c(-c3ccc(O)cc3)coc2cc1O", "note": "[glycitein]", "values": [{"measurement": "Decomposition efficiency of glycitin family in roasted soy flour", "setting": "pH5, heat treatment of enzyme no, reaction time 0 h", "result": 8.6}, {"measurement": "Decomposition efficiency of glycitin family in roasted soy flour", "setting": "pH5, heat treatment of enzyme no, reaction time 1 h", "result": 77.1}, {"measurement": "Decomposition efficiency of glycitin family in roasted soy flour", "setting": "pH5, heat treatment of enzyme no, reaction time 3 h", "result": 93.5}, {"measurement": "Decomposition efficiency of glycitin family in roasted soy flour", "setting": "pH5, heat treatment of enzyme no, reaction time 6 h", "result": 100.0}, {"measurement": "Decomposition efficiency of glycitin family in roasted soy flour", "setting": "pH5, heat treatment of enzyme yes, reaction time 6 h", "result": 9.4}, {"measurement": "Decomposition efficiency of glycitin family in concentrated soybean protein", "setting": "pH5.1, heat treatment of enzyme: no, reaction time 0 h", "result": 11.1, "unit": "%"}, {"measurement": "Decomposition efficiency of glycitin family in concentrated soybean protein", "setting": "pH5.1, heat treatment of enzyme: no, reaction time 1 h", "result": 62.1, "unit": "%"}, {"measurement": "Decomposition efficiency of glycitin family in concentrated soybean protein", "setting": "pH5.1, heat treatment of enzyme: no, reaction time 3 h", "result": 73.4, "unit": "%"}, {"measurement": "Decomposition efficiency of glycitin family in concentrated soybean protein", "setting": "pH5.1, heat treatment of enzyme: no, reaction time 6 h", "result": 78.5, "unit": "%"}, {"measurement": "Decomposition efficiency of glycitin family in concentrated soybean protein", "setting": "pH5.1, heat treatment of enzyme: yes, reaction time 6 h", "result": 11.5, "unit": "%"}, {"measurement": "Decomposition efficiency of glycitin family in defatted soybean", "setting": "pH5.4, heat treatment of enzyme: no, reaction time 0 h", "result": 36.0, "unit": "%"}, {"measurement": "Decomposition efficiency of glycitin family in defatted soybean", "setting": "pH5.4, heat treatment of enzyme: no, reaction time 1 h", "result": 54.9, "unit": "%"}, {"measurement": "Decomposition efficiency of glycitin family in defatted soybean", "setting": "pH5.4, heat treatment of enzyme: no, reaction time 3 h", "result": "not detected"}, {"measurement": "Decomposition efficiency of glycitin family in defatted soybean", "setting": "pH5.4, heat treatment of enzyme: no, reaction time 6 h", "result": 67.7, "unit": "%"}, {"measurement": "Decomposition efficiency of glycitin family in defatted soybean", "setting": "pH5.4, heat treatment of enzyme: yes, reaction time 6 h", "result": 60.7, "unit": "%"}, {"measurement": "Decomposition efficiency of glycitin family in soymilk", "setting": "pH6.2, heat treatment of enzyme no, reaction time 0 h", "result": 6.2}, {"measurement": "Decomposition efficiency of glycitin family in soymilk", "setting": "pH6.2, heat treatment of enzyme no, reaction time 1 h", "result": 53.6}, {"measurement": "Decomposition efficiency of glycitin family in soymilk", "setting": "pH6.2, heat treatment of enzyme no, reaction time 3 h", "result": 65.5}, {"measurement": "Decomposition efficiency of glycitin family in soymilk", "setting": "pH6.2, heat treatment of enzyme no, reaction time 6 h", "result": 70.4}, {"measurement": "Decomposition efficiency of glycitin family in soymilk", "setting": "pH6.2, heat treatment of enzyme yes, reaction time 6 h", "result": 8.2}, {"measurement": "Decomposition efficiency of glycitin family in roasted soy flour", "setting": "pH6.5, heat treatment of enzyme no, reaction time 0 h", "result": 8.8}, {"measurement": "Decomposition efficiency of glycitin family in roasted soy flour", "setting": "pH6.5, heat treatment of enzyme no, reaction time 1 h", "result": 65.0}, {"measurement": "Decomposition efficiency of glycitin family in roasted soy flour", "setting": "pH6.5, heat treatment of enzyme no, reaction time 3 h", "result": 80.3}, {"measurement": "Decomposition efficiency of glycitin family in roasted soy flour", "setting": "pH6.5, heat treatment of enzyme no, reaction time 6 h", "result": 88.1}, {"measurement": "Decomposition efficiency of glycitin family in roasted soy flour", "setting": "pH6.5, heat treatment of enzyme yes, reaction time 6 h", "result": 9.8}, {"measurement": "Decomposition efficiency of glycitin family in concentrated soybean protein", "setting": "[1]", "result": 11.3, "unit": "%"}, {"measurement": "Decomposition efficiency of glycitin family in defatted soybean", "setting": "[1]", "result": 60.4, "unit": "%"}, {"measurement": "Decomposition efficiency of glycitin family in concentrated soybean protein", "setting": "[2]", "result": 42.2, "unit": "%"}, {"measurement": "Decomposition efficiency of glycitin family in defatted soybean", "setting": "[2]", "result": 47.1, "unit": "%"}, {"measurement": "Decomposition efficiency of glycitin family in concentrated soybean protein", "setting": "[3]", "result": 60.3, "unit": "%"}, {"measurement": "Decomposition efficiency of glycitin family in defatted soybean", "setting": "[3]", "result": 46.4, "unit": "%"}, {"measurement": "Decomposition efficiency of glycitin family in concentrated soybean protein", "setting": "[4]", "result": 68.1, "unit": "%"}, {"measurement": "Decomposition efficiency of glycitin family in defatted soybean", "setting": "[4]", "result": 41.9, "unit": "%"}, {"measurement": "Decomposition efficiency of glycitin family in concentrated soybean protein", "setting": "[5]", "result": 11.1, "unit": "%"}, {"measurement": "Decomposition efficiency of glycitin family in defatted soybean", "setting": "[5]", "result": 49.7, "unit": "%"}, {"measurement": "Decomposition efficiency of glycitin family in soymilk", "setting": "pH7.2, heat treatment of enzyme no, reaction time 0 h", "result": 6.1}, {"measurement": "Decomposition efficiency of glycitin family in soymilk", "setting": "pH7.2, heat treatment of enzyme no, reaction time 1 h", "result": 51.2}, {"measurement": "Decomposition efficiency of glycitin family in soymilk", "setting": "pH7.2, heat treatment of enzyme no, reaction time 3 h", "result": 53.8}, {"measurement": "Decomposition efficiency of glycitin family in soymilk", "setting": "pH7.2, heat treatment of enzyme no, reaction time 6 h", "result": 58.4}, {"measurement": "Decomposition efficiency of glycitin family in soymilk", "setting": "pH7.2, heat treatment of enzyme yes, reaction time 6 h", "result": 5.6}, {"measurement": "Decomposition efficiency of glycitin family in defatted soybean", "setting": "pH7.8, heat treatment of enzyme: no, reaction time 0 h", "result": 33.2, "unit": "%"}, {"measurement": "Decomposition efficiency of glycitin family in defatted soybean", "setting": "pH7.8, heat treatment of enzyme: no, reaction time 1 h", "result": 42.5, "unit": "%"}, {"measurement": "Decomposition efficiency of glycitin family in defatted soybean", "setting": "pH7.8, heat treatment of enzyme: no, reaction time 3 h", "result": 46.8, "unit": "%"}, {"measurement": "Decomposition efficiency of glycitin family in defatted soybean", "setting": "pH7.8, heat treatment of enzyme: no, reaction time 6 h", "result": 50.9, "unit": "%"}, {"measurement": "Decomposition efficiency of glycitin family in defatted soybean", "setting": "pH7.8, heat treatment of enzyme: yes, reaction time 6 h", "result": 44.2, "unit": "%"}, {"measurement": "Decomposition efficiency of glycitin family in roasted soy flour", "setting": "pH8.5, heat treatment of enzyme no, reaction time 0 h", "result": 9.6}, {"measurement": "Decomposition efficiency of glycitin family in roasted soy flour", "setting": "pH8.5, heat treatment of enzyme no, reaction time 1 h", "result": 28.2}, {"measurement": "Decomposition efficiency of glycitin family in roasted soy flour", "setting": "pH8.5, heat treatment of enzyme no, reaction time 3 h", "result": 40.1}, {"measurement": "Decomposition efficiency of glycitin family in roasted soy flour", "setting": "pH8.5, heat treatment of enzyme no, reaction time 6 h", "result": 47.4}, {"measurement": "Decomposition efficiency of glycitin family in roasted soy flour", "setting": "pH8.5, heat treatment of enzyme yes, reaction time 6 h", "result": 9.1}, {"measurement": "Decomposition efficiency of glycitin family in concentrated soybean protein", "setting": "pH8.6, heat treatment of enzyme: no, reaction time 0 h", "result": 11.7, "unit": "%"}, {"measurement": "Decomposition efficiency of glycitin family in concentrated soybean protein", "setting": "pH8.6, heat treatment of enzyme: no, reaction time 1 h", "result": 15.4, "unit": "%"}, {"measurement": "Decomposition efficiency of glycitin family in concentrated soybean protein", "setting": "pH8.6, heat treatment of enzyme: no, reaction time 3 h", "result": 21.0, "unit": "%"}, {"measurement": "Decomposition efficiency of glycitin family in concentrated soybean protein", "setting": "pH8.6, heat treatment of enzyme: no, reaction time 6 h", "result": 30.9, "unit": "%"}, {"measurement": "Decomposition efficiency of glycitin family in concentrated soybean protein", "setting": "pH8.6, heat treatment of enzyme: yes, reaction time 6 h", "result": 11.3, "unit": "%"}, {"measurement": "Decomposition efficiency of glycitin family in soymilk", "setting": "pH11.6, heat treatment of enzyme no, reaction time 0 h", "result": 6.2}, {"measurement": "Decomposition efficiency of glycitin family in soymilk", "setting": "pH11.6, heat treatment of enzyme no, reaction time 1 h", "result": 49.6}, {"measurement": "Decomposition efficiency of glycitin family in soymilk", "setting": "pH11.6, heat treatment of enzyme no, reaction time 3 h", "result": 53.5}, {"measurement": "Decomposition efficiency of glycitin family in soymilk", "setting": "pH11.6, heat treatment of enzyme no, reaction time 6 h", "result": 56.0}, {"measurement": "Decomposition efficiency of glycitin family in soymilk", "setting": "pH11.6, heat treatment of enzyme yes, reaction time 6 h", "result": 5.8}, {"measurement": "existing ratio of aglycon of each isoflavone family", "setting": "roasted soy flour, pH 4 for 6 hours", "result": 100, "unit": "%"}, {"measurement": "existing ratio of aglycon of each isoflavone family", "setting": "soymilk, pH 3.5 for 6 hours", "result": 100, "unit": "%"}]}
